Columns and labels:
[1] = target: T1, human GIPR (Homo sapiens, UniProt P48546); assay: β-arrestin 1 recruitment BRET assay, GIPR; format: cell-based
T1 sequence (P48546 22-466): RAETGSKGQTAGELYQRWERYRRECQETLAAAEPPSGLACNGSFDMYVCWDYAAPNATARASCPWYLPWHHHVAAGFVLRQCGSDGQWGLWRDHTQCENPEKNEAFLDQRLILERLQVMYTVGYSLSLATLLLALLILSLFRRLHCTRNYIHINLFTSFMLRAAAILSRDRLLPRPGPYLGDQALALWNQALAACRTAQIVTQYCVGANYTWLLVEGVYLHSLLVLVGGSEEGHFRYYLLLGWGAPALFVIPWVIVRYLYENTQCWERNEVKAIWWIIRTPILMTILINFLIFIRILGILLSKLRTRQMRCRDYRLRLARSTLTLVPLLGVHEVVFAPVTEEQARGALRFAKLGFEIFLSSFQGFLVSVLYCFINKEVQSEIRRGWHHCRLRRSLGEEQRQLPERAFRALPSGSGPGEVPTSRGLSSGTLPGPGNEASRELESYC
Experimental: (§1) The cells were seeded (700,000 cells/well) in 6-well plates and incubated to ∼70% confluency in complete media supplemented with 10% FBS and 1% Pen-Strep. […] Baseline measurements were taken after 5 min of incubation with coelenterazine-h or NanoGlo. The cells were then treated with a vehicle or the respective agonists. […] The temporal data of the vehicle-corrected agonist measurement was then normalized to the baseline reading of the same well. The first BRET reading following treatment with agonist/vehicle was the subsequent measurement after the zero time point. Positive or negative incremental areas under the curves (+iAUC/-iAUC) were calculated where noted. Each experiment was independently performed at least three times, with at least two technical replicates for each group.
(§2) Co-localization of β-arrestin1/2-RLUC8 with GLP-1R-GFP or GIPR-GFP was assessed.
(§3) Data are represented as means ± S.E.M. Each experiment was independently conducted at least three times, each with at least two technical replicates. […] Dose responses were fitted using non-linear regression. pEC50 and EC50 values were calculated using GraphPad Prism 8.0 (GraphPad, San Diego, CA, USA). Statistical analyses were calculated in GraphPad 8.0 using one-way analysis of variance (ANOVA) and corrected with Tukey's or Bonferroni's multiple comparison test. Differences are considered significant with an adjusted p value < 0.05.

[2] = target: T1, human GIPR; assay: cAMP assay (CAMYEL BRET sensor), GIPR; format: cell-based
Experimental: as §1
(§4) CAMYEL, a cAMP sensor using YFP-Epac-RLuc was utilized to quantify cAMP accumulation with the temporal resolution. Then, 500 ng of CAMYEL DNA was co-transfected with 500 ng of DNA of untagged GLP-1R or GIPR per well in a 6-well plate. The experiments were performed in the absence of 3-isobutyl-1-methylxanthine (IBMX).
as §3

[3] = target: T2, human GLP-1R (Homo sapiens, UniProt P43220); assay: cAMP assay (CAMYEL BRET sensor), GLP-1R; format: cell-based
T2 construct: host or cells: HEK293T
T2 sequence (P43220 24-463): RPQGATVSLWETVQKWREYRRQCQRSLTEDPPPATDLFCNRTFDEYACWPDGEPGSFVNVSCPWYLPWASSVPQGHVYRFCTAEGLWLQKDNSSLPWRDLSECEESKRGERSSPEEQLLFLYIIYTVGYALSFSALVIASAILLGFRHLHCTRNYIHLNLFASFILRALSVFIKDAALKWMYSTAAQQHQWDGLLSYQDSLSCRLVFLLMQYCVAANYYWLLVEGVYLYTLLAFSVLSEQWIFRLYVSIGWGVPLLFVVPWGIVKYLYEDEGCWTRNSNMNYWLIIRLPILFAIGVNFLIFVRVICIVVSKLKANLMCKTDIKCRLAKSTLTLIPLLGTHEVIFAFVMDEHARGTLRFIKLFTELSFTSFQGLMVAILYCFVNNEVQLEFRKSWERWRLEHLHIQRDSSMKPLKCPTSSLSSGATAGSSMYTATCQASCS
Experimental: as §1, §4, §3

[4] = target: T1, human GIPR; assay: β-arrestin 2 recruitment BRET assay, GIPR; format: cell-based; settings: HEK293T, GIPR-GFP + β-arrestin2-RLUC8, BRET, +iAUC 30 min
Experimental: as §1, §2, §3

[5] = target: Human GLP-1R-GFP (human) (UniProt P43220)
Chain of Human GLP-1R-GFP (human) (P43220 24-463): as above

[6] = target: Human GLP-1R-GFP (human) (UniProt P43220); remark: listed apart in the source
[7] = target: T1, human GIPR; assay: Gαq (mini-G) recruitment BRET assay, GIPR; format: cell-based; settings: HEK293T, GIPR-GFP + NLuc-mini-G, +iAUC 60 min
[8] = target: T2, human GLP-1R; assay: Gαq (mini-G) recruitment BRET assay, GLP-1R; format: cell-based; settings: HEK-293T, HEK293T, GLP-1R-GFP + NLuc-mini-G, +iAUC 60 min, mean ± SEM, at least 3 experiments
[9] = target: T2, human GLP-1R; assay: GPCR internalization assay (loss of BRET with Venus-KRAS), GLP-1R; format: cell-based; settings: HEK-293T, HEK293T, hGLP-1R-Rluc8 + Venus-KRAS, iAUC 60 min, mean ± SEM, at least 3 experiments, SEM, read-out: Receptor Internalization Emax (% GLP-1)
[10] = target: T2, human GLP-1R; assay: Gαs (mini-G) recruitment BRET assay, GLP-1R; format: cell-based; settings: HEK-293T, HEK293T, GLP-1R-GFP + NLuc-mini-G, +iAUC 60 min, mean ± SEM, at least 3 experiments
[11] = target: T2, human GLP-1R; assay: Endosomal trafficking assay (Venus-Rab5/7/11 co-localization), GLP-1R, HEK293T; format: cell-based; settings: six experiments
Experimental: GPCR endosomal trafficking was assessed by measuring the ligand-stimulated gain in resonance energy transfer between Venus-Rab5/7/11 and hGLP-1R-RLUC8 or hGIPR-RLUC. Then, 100 ng of the respective Venus-Rab subtype DNA and 100 ng of hGLP-1R-RLUC8 or hGIPR-RLUC8 DNA were co-transfected into each well in a 6-well plate.

[12] = target: T1, human GIPR; assay: Gαs (mini-G) recruitment BRET assay, GIPR; format: cell-based; settings: HEK293T, GIPR-GFP + NLuc-mini-G, +iAUC 60 min
[13] = target: T1, human GIPR; assay: GPCR internalization assay (loss of BRET with Venus-KRAS), GIPR; format: cell-based; settings: HEK293T, hGIPR-Rluc8 + Venus-KRAS, iAUC 20 min, mean ± SEM, SEM

CCCCCCCCCCCCCCCC(=O)NCCCC[C@H](NC(=O)[C@H](CO)NC(=O)[C@@H]1CCCN1C(=O)[C@@H]1CCCN1C(=O)[C@@H]1CCCN1C(=O)[C@H](C)NC(=O)CNC(=O)[C@H](CO)NC(=O)[C@H](CO)NC(=O)[C@@H]1CCCN1C(=O)CNC(=O)CNC(=O)[C@H](C)NC(=O)[C@H](CC(C)C)NC(=O)[C@H](CC(C)C)NC(=O)[C@H](Cc1c[nH]c2ccccc12)NC(=O)[C@H](CC(N)=O)NC(=O)[C@@H](NC(=O)[C@H](Cc1ccccc1)NC(=O)[C@H](CCC(=O)O)NC(=O)C(C)(C)NC(=O)[C@H](C)NC(=O)[C@H](C)NC(=O)[C@H](CCC(N)=O)NC(=O)[C@H](CCCCN)NC(=O)[C@H](CC(=O)O)NC(=O)[C@H](CC(C)C)NC(=O)[C@H](Cc1ccc(O)cc1)NC(=O)[C@@H](NC(=O)[C@H](CO)NC(=O)[C@H](Cc1ccc(O)cc1)NC(=O)[C@H](CC(=O)O)NC(=O)[C@H](CO)NC(=O)[C@@H](NC(=O)[C@H](Cc1ccccc1)NC(=O)[C@@H](NC(=O)CNC(=O)[C@H](CCC(=O)O)NC(=O)C(C)(C)NC(=O)[C@@H](N)Cc1ccc(O)cc1)[C@@H](C)O)[C@@H](C)CC)[C@@H](C)CC)C(C)C)C(N)=O [fatty acyl-GIP]
EC50 ([1]; read-out: β-arr1 Recruitment EC50; HEK293T, GIPR-GFP + β-arrestin1-RLUC8, BRET, +iAUC 30 min): > 1000 nM
EC50 [2]: 1.34 nM
Emax ([2]; HEK-293T, HEK293T transiently expressing untagged GIPR, CAMYEL sensor, no IBMX, +iAUC of 25 min response, 3-parameter fit, mean ± SEM, at least 3 experiments, SEM, read-out: cAMP Emax (% GIP)): 97 ± 2%
EC50 [3]: 181 nM
EC50 ([4]; read-out: β-arr2 Recruitment EC50): > 1000 nM

Tirzepatide (peptide)
GLP-1R co-localization with Rab5 early endosomes (BRET of hGLP-1R-Rluc8 with Venus-Rab5, HEK293T), 1 μM, % of GLP-1 (7–36 amide) [5]: 13%
GLP-1R co-localization with Rab7 late endosomes (BRET of hGLP-1R-Rluc8 with Venus-Rab7, HEK293T), % of GLP-1 (7–36 amide) [5]: 24%
GLP-1R co-localization with Rab11 recycling endosomes (BRET of hGLP-1R-Rluc8 with Venus-Rab11, HEK293T), decrease against GLP-1 (7–36 amide) [5]: 54%
GLP-1R internalization Emax, % of GLP-1 (7–36 amide) (loss of BRET between hGLP-1R-Rluc8 and Venus-KRAS, HEK293T) [6]: 13%

CC[C@H](C)[C@H](NC(=O)[C@H](CC(C)C)NC(=O)[C@H](Cc1c[nH]c2ccccc12)NC(=O)[C@H](CCC(N)=O)NC(=O)[C@@H](NC(=O)[C@H](Cc1ccccc1)NC(=O)[C@H](C)NC(=O)[C@H](CCCCNC(=O)COCCOCCNC(=O)COCCOCCNC(=O)CC[C@H](NC(=O)CCCCCCCCCCCCCCCCCCC(=O)O)C(=O)O)NC(=O)[C@H](CCC(N)=O)NC(=O)[C@H](C)NC(=O)[C@@H](NC(=O)[C@H](CCCCN)NC(=O)[C@H](CC(=O)O)NC(=O)[C@H](CC(C)C)NC(=O)C(C)(C)NC(=O)[C@@H](NC(=O)[C@H](CO)NC(=O)[C@H](Cc1ccc(O)cc1)NC(=O)[C@H](CC(=O)O)NC(=O)[C@H](CO)NC(=O)[C@@H](NC(=O)[C@H](Cc1ccccc1)NC(=O)[C@@H](NC(=O)CNC(=O)[C@H](CCC(=O)O)NC(=O)C(C)(C)NC(=O)[C@@H](N)Cc1ccc(O)cc1)[C@@H](C)O)[C@@H](C)O)[C@@H](C)CC)[C@@H](C)CC)C(C)C)C(=O)N[C@@H](C)C(=O)NCC(=O)NCC(=O)N1CCC[C@H]1C(=O)N[C@@H](CO)C(=O)N[C@@H](CO)C(=O)NCC(=O)N[C@@H](C)C(=O)N1CCC[C@H]1C(=O)N1CCC[C@H]1C(=O)N1CCC[C@H]1C(=O)N[C@@H](CO)C(N)=O [tirzepatide, reference compound]
EC50 ([1]; HEK293T, GIPR-GFP + β-arrestin1-RLUC8, BRET, +iAUC 30 min; read-out: β-arr1 Recruitment EC50): > 1000 nM
EC50 ([1]; HEK293T, GIPR-GFP + β-arrestin1-RLUC8, BRET, +iAUC 30 min; read-out: β-arr1 Recruitment pEC50 (converted)): > 1000 nM
EC50 ([7]; mean ± SEM, SEM, read-out: Gαq Recruitment pEC50 (converted)): 132 nM
Gαq Recruitment Emax (% GIP) ([7]; mean ± SEM, at least 3 experiments, listed as Dual Agonist (Tirzepatide), SEM): 71 ± 1 [-29]*^# % GIP
EC50 ([7]; read-out: Gαq Recruitment EC50): 164 nM
Emax ([7]; HEK-293T, mean ± SEM, at least 3 experiments, read-out: Gαq Recruitment Emax (% GIP)): 85%
Emax [8]: 17%
Emax [9]: 24 ± 4%
EC50 ([2]; HEK293T, GIPR, CAMYEL sensor, no IBMX, +iAUC 25 min, read-out: cAMP EC50): 13.3 nM
Emax [10]: 31%
total GLP-1R Rab5 co-localization, of that elicited by GLP-1 (7–36 amide) ([11]; 1 μM stimulation, hGLP-1R-Rluc8 + Venus-Rab5 (early endosomes), +iAUC): 13%
co-localization of GLP-1R with Rab7 positive (late) endosomes, of the response of GLP-1 (7–36 amide) ([11]; hGLP-1R-Rluc8 + Venus-Rab7, +iAUC): 24%
GLP-1R co-localization with Rab11-positive recycling endosomes, decrease vs GLP-1 (7–36 amide) ([11]; hGLP-1R-Rluc8 + Venus-Rab11, +iAUC): 54%
Emax ([3]; HEK-293T, HEK293T transiently expressing untagged GLP-1R, CAMYEL sensor, no IBMX, +iAUC of 25 min response, 3-parameter fit, mean ± SEM, at least 3 experiments, SEM): 102 ± 4%
EC50 ([12]; read-out: Gαs Recruitment EC50): 324 nM
Emax ([12]; HEK-293T, mean ± SEM, at least 3 experiments, SEM, read-out: Gαs Recruitment Emax (% GIP)): 43 ± 3%
EC50 ([13]; read-out: Receptor Internalization pEC50 (converted)): 4.68 nM
Emax ([13]; HEK-293T, at least 3 experiments, read-out: Receptor Internalization Emax (% GIP)): 18 ± 1%
EC50 ([4]; mean ± SEM, SEM, read-out: β-arr2 Recruitment pEC50 (converted)): 39.8 nM

Reference: PMC7921015, “Spatiotemporal GLP-1 and GIP receptor signaling and trafficking/recycling dynamics induced by selected receptor mono- and dual-agonists” (Molecular Metabolism, 2021)
